Converted amounts (≈) assume the structure as drawn.
How the values were obtained:
[1] = test system: Respiratory syncytial virus; experiment: Antiviral activity against Respiratory syncytial virus infected cell system assessed as inhibition of viral replication; assay type: functional, organism-based; conditions: human respiratory syncytial virus
Aorta [2] = experiment: Vasorelaxant activity in endothelium-denuded Rattus norvegicus (rat) aortic rings; assay type: functional, tissue-based
Aorta [3] = experiment: Vasorelaxant activity in Rattus norvegicus (rat) aortic rings; assay type: functional, tissue-based
Candida = experiment: Antimicrobial activity against Candida; assay type: functional
[4] = Inhibition of GABA-A receptor benzodiazepine site (unknown origin); design: species or system Homo sapiens
[5] = test system: Respiratory syncytial virus; experiment: Ratio of ribavirin EC50 to compound EC50 for Respiratory syncytial virus infected cell system assessed as inhibition of viral replication; assay type: functional
Plasmodium falciparum = experiment: Antimicrobial activity against Plasmodium falciparum; assay type: functional, organism-based
HL-60 = experiment: Cytotoxicity against Homo sapiens (human) HL60 cells by Alamar blue assay; assay type: functional, cell-based
MCF7 = experiment: Cytotoxicity against Homo sapiens (human) MCF7 cells by Alamar blue assay; assay type: functional, cell-based
HT-29 = experiment: Cytotoxicity against Homo sapiens (human) HT-29 cells by Alamar blue assay; assay type: functional, cell-based
PC-3 = experiment: Cytotoxicity against Homo sapiens (human) PC3 cells by Alamar blue assay; assay type: functional, cell-based
Casein kinase 2 = Casein kinase 2 (Rattus norvegicus, UniProt P19139); experiment: Inhibition of Rattus norvegicus (rat) liver cytosolic CK2
Trichomonas vaginalis = experiment: Antimicrobial activity against Trichomonas vaginalis; assay type: functional, organism-based
Giardia intestinalis = experiment: Antimicrobial activity against Giardia intestinalis; assay type: functional, organism-based; conditions: Giardia duodenalis
Progesterone receptor = target: T1, Progesterone receptor (Homo sapiens, UniProt P06401); experiment: Binding affinity to Homo sapiens (human) progesterone receptor
T1 sequence (P06401 whole entry): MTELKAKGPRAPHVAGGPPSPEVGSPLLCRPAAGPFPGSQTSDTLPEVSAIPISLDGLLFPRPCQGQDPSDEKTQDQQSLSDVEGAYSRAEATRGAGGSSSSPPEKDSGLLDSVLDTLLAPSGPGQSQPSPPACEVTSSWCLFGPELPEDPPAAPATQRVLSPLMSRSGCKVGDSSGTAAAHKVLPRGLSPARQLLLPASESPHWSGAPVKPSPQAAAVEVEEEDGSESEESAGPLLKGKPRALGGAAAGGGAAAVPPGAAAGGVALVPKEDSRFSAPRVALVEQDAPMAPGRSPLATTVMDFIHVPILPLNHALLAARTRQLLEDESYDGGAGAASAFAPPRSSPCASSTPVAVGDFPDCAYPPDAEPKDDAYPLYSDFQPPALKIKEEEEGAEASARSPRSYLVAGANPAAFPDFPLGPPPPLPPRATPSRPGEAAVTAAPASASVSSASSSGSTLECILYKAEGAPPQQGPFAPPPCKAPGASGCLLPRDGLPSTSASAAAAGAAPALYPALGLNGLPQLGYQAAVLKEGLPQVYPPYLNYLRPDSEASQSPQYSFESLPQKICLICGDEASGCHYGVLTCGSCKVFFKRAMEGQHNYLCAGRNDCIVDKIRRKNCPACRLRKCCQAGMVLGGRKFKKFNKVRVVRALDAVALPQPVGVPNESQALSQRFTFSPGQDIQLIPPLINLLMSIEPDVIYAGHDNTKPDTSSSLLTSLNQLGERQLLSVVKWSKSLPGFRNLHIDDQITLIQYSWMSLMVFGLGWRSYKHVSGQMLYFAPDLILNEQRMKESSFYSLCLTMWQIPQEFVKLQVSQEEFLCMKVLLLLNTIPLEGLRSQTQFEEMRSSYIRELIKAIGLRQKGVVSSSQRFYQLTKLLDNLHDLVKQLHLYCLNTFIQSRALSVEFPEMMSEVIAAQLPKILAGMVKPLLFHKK

Casein kinase 2, sequence (P67874 whole entry): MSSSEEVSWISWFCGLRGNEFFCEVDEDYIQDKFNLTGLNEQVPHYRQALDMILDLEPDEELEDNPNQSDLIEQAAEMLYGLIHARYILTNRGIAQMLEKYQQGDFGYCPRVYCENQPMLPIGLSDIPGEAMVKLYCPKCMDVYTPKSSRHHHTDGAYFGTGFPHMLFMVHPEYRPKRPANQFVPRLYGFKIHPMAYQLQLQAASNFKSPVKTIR
Casein kinase 2, sequence (P19139 whole entry): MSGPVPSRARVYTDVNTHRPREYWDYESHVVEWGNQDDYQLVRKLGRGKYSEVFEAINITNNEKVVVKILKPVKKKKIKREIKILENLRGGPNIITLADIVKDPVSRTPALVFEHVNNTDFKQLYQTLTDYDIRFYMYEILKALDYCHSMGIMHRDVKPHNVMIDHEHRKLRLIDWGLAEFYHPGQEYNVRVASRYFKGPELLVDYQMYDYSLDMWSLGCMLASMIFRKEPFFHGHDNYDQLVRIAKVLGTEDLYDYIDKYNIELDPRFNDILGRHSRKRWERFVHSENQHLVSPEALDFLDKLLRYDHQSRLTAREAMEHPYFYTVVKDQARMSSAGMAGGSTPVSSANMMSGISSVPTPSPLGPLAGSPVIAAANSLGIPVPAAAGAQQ

`NC(=O)c1ncn([C@@H]2O[C@H](CO)[C@@H](O)[C@H]2O)n1` [RIBAVIRIN] gave an EC50 [1] of 15000 nM.
Compound `COc1ccc(-c2nc3cc([N+](=O)[O-])ccc3[nH]2)cc1` has an IC50 (Aorta [2]) of 3610 nM and an IC50 (Aorta [3]) of 1410 nM.
Compound `O=[N+]([O-])c1ccc2nc(-c3ccccc3O)[nH]c2c1` has an IC50 (Aorta [2]) of 2010 nM and an IC50 (Aorta [3]) of 950 nM.
Work on `CCCCn1c(-c2ccc(F)cc2)nc2cc(C#N)ccc21` yielded an MIC (Candida) of 3130 ng/mL (≈ 10.7 µM).
Work on `CCOCN1C2=C(C(=O)Nc3ccccc3F)C(=O)CCN2c2ccc(F)cc21` yielded an IC50 [4] of 0.1 nM.
With `Cc1ccc(O)c(Cn2c(NC3CCN(CCN)CC3)nc3c(C)cccc32)n1` [JNJ 2408068] the EC50 [1] was 0.16 nM and the “Ratio EC50” value [5] was 100000.
Work on `N=C(N)c1ccc(-c2ccc(O)c(-c3nc4ccc(C(=N)N)cc4[nH]3)c2)cc1` yielded an IC50 (Plasmodium falciparum) of 2.1 nM.
Work on `O=C(O)c1cccc2[nH]c(-c3cccc4oc(-c5ccccc5O)nc34)nc12` yielded an IC50 (HL-60) of 7000 nM, an IC50 (MCF7) of 7000 nM and an IC50 (HT-29) of 7000 nM. For the same compound, the IC50 (PC-3) was 7000 nM.
For `FC(F)(F)c1nc2c(Br)c(Br)c(Br)c(Br)c2[nH]1`, the Ki (Casein kinase 2) was 600 nM.
Work on `Sc1nc2c(Br)cc(Br)cc2[nH]1` yielded an IC50 (Trichomonas vaginalis) of 1.5 ng/mL (≈ 0.00487 µM) and an IC50 (Giardia intestinalis) of 6 ng/mL (≈ 0.0195 µM).
Compound `Sc1nc2ccc(-n3ccnc3)cc2n1C1CCCC1` has a Ki (Progesterone receptor) of 28 nM.
